Test results as given in patent US20170158702A1, “MULTIVALENT RAS BINDING COMPOUNDS” (KYRAS THERAPEUTICS, INC., priority 2015, published 2017).
Where a name gives a salt, the structure may show the parent alone.

What was measured:
Format in all cases: cell-based
[1] = test system: NCI-H2023; test: Viability assay with NCI-H2023; settings: NCI-H2023, viability assay per Example 57
Protocol: (§1) NCI-H460 (Epithelial lung tissue; carcinoma; large cell lung cancer) were cultured in RPMI Medium 1640 (Invitrogen-22400105) supplemented with 10% fetal bovine serum (FBS; Invitrogen-10099141). All the cell lines were maintained in a humidified incubator at 37° C. with 5% CO2. Cell culture media and supplements were purchased from Invitrogen, and tissue culture flasks were purchased from Corning, 96-well plates were purchased from Greiner. CellTiter-Glo Luminescent Cell Viability Assay kits were purchased from Promega (Promega-G7573), cells counter Vi-Cell was purchased from Beckman, D300e digital dispenser was purchased from Tecan, detection instrument Envision was purchased from PerkinElmer.
(§2) Paclitaxel was purchased from SELLECK, test compounds, such as any one of the compounds disclosed herein, attained solubility in DMSO and when diluted into culture media. DMSO, solutions containing the test compounds, and culture media were warmed to 37° C. or room temperature for the solution preparation and dilutions.
(§3) NCI-H460 Cell line were seeded in 96-well plates (1200/well) and allowed to adhere to overnight (100 uL/well), for drug treatments with 2 fold dilution, 9 dose points, triplicates or vehicle control, compound stock solutions were prepared in DMSO and use D300e digital dispenser to add compounds to the wells to give the indicated final drug concentrations. Final DMSO concentration was 0.5%. Cellular ATP concentrations were assessed by using the CellTiter-Glo Cell Viability Assay as per the manufacturer's instructions 72 h after compounds addition. Additional cells lines were assayed with any one of the compounds disclosed herein according to the procedures described for the viability assay with NCI-H460.
A viability assay with NCI-H2023 (stage 3A, adenocarcinoma; non-small cell lung cancer) was performed with compounds listed in Table 16 according to the procedures described in Example 57.

[2] = test system: NCI-H460; test: Viability assay with NCI-H460 (CellTiter-Glo cytotoxicity assay, 72 h); settings: NCI-H460 cell line, 72 h after compounds addition
Summary of the method: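 NCI-H460 cells, RPMI 1640 + 10% FBS, seeded 1200/well and adhered overnight, then exposed to compounds at 9 points, 2-fold dilution, in triplicate, 0.5% DMSO final. Cellular ATP measured by CellTiter-Glo luminescence 72 h after addition.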

[3] = test system: U2OS; test: Viability assay with U2OS; settings: viability assay per Example 57
Protocol: as §1, §2, §3
The viability assay with U2OS (epithelial bone tissue; osteosarcoma) was performed with compounds listed in Table 17 according to the procedures described in Example 57.

[4] = test system: MIA PaCa-2; test: Viability assay with MIA PaCa-2; settings: MIA PaCa-2, viability assay per Example 57
Summary of the method: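 MIA PaCa-2 cells were seeded at 1200/well, allowed to adhere overnight, then treated in triplicate with 9-point 2-fold compound dilutions at 0.5% final DMSO. Viability was measured as cellular ATP by CellTiter-Glo luminescence 72 h after compound addition.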

[5] = test system: HT-29; test: Viability assay with HT-29; settings: HT-29, viability assay per Example 57
Summary of the method: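 Cells seeded 1200/well, adhered overnight, then treated with 9-point 2-fold compound dilutions in triplicate (0.5% final DMSO). Viability taken as cellular ATP by CellTiter-Glo luminescence 72 h after compound addition.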

| EC50 [3] [µM] | EC50 [4] [µM] | EC50 [5] [µM] | SMILES | EC50 [1] [µM] | EC50 [2] [µM] |
| --- | --- | --- | --- | --- | --- |
| ≤ 5 | ≤ 5 | – | NCCCCn1cc(-c2ccc(OC(F)(F)F)cc2)c2cc(CN3CCN(Cc4c(Cl)cccc4Cl)CC3)ccc21 [C43; HCl] | ≤ 5 | ≤ 5 |
| ≤ 5 | ≤ 5 | ≤ 5 | NCCCn1cc(-c2ccc(OC(F)(F)F)cc2)c2cc(CN3CCN(Cc4cc(Cl)ccc4Cl)CC3)ccc21 [C156; HCl] | – | ≤ 5 |

| SMILES | EC50 [3] [µM] | EC50 [4] [µM] | EC50 [5] [µM] | EC50 [1] [µM] | EC50 [2] [µM] |
| --- | --- | --- | --- | --- | --- |
| COc1ccc(-c2cn(CCCN)c3ccc(CN4CCN(Cc5c(Cl)cccc5Cl)CC4)cc23)cc1 [C22; Formic acid] | ≤ 5 | ≤ 5 | – | ≤ 5 | ≤ 5 |
